System: Bel-7402
Assay: Cytotoxicity against human Bel7402 cells by MTT assay
Format: functional, cell-based

| Structure (SMILES) | IC50 |
| --- | --- |
| CC(=O)O[C@H]1[C@H]2O[C@]23[C@@H]2[C@@H](O)C[C@@H]4C[C@@H](O)CC[C@]4(C)[C@H]2CC[C@]3(C)[C@H]1c1ccc(=O)oc1 | 540 nM |
| CC(=O)O[C@H]1[C@H]2O[C@]23[C@@H]2CC[C@]4(O)C[C@@H](O)CC[C@]4(C)[C@H]2C[C@@H](O)[C@]3(C)[C@H]1c1ccc(=O)oc1 | 660 nM |
| CC(=O)O[C@H]1[C@H]2O[C@]23[C@@H]2CC[C@@H]4C[C@@H](O)CC[C@]4(C)[C@H]2C[C@@H](O)[C@]3(C)[C@H]1c1ccc(=O)oc1 | 370 nM |
| CC(=O)O[C@H]1[C@H]2O[C@]23[C@@H]2CC[C@@H]4C[C@@H](O)CC[C@]4(C)[C@H]2CC[C@]3(C)[C@H]1c1ccc(=O)oc1 [CINOBUFAGIN] | 100 nM |
| CC(=O)O[C@H]1[C@H]2O[C@]23[C@@H]2CC[C@]4(O)C[C@@H](O)CC[C@]4(C)[C@H]2CC[C@]3(C)[C@H]1c1ccc(=O)oc1 [CINOBUFOTALIN] | 1210 nM |
